Earlier results as cited in US20050137262A1, “Highly concentrated pourable aqueous solutions of potassium ibuprofen, their preparation and their uses” (priority 2003, published 2005).

In the case of `CC(C)Cc1ccc(C(C)C(=O)[O-])cc1.[K+]` (centres unmarked) [potassium ibuprofen, potassium 2-(4-isobutylphenyl)propionate], the “concentration of dissolved potassium ibuprofen” value (U.S. Pat No. 5,912,011 Table 1, system with 35.2 wt % ibuprofen, 33.3 wt % PEG 600, 7.3 wt % water) is listed as 24.2 wt % and the “maximum concentration of dissolved potassium ibuprofen shown” value (U.S. Pat. No. 6,387,400, polyethylene glycol solvent, less than about 50 mole % of ibuprofen converted to potassium salt) is listed as “about 24.2 wt %”.
